Assay results as given in PMC11530130, “Peripherally restricted PICK1 inhibitor mPD5 ameliorates pain behaviors in murine inflammatory and neuropathic pain models” (JCI Insight, 2024).
Values joined by “and” are separate entries in the source; they are usually repeats but may differ in a detail not shown here. Identical values can stand only once. Like-named read-outs stand apart in the source and are kept apart here.

Assays:
[1] = test system: mice, spared nerve injury (SNI) model; type: in vivo, mouse; conditions: for von Frey paw withdrawal threshold, ipsilateral paw (Fig 7F): SNI mice, 10 umol/kg, individual animals
Description: solution (0.05 mg/kg) injected s.c. 30 min before surgery (10 μL/g). For surgery, mice were anaesthetised with ketamine (100 mg/kg, i.p.) and xylazine (10 mg/kg, i.p.) (volume 10 µL/g) with 100 μL of 1% xylocaine solution infiltrated at the site of the incision. The distal trifurcation of the sciatic nerve was identified, and the tibial and common peroneal branches were ligated with polypropylene nonabsorbable 6-0 sutures (Ethicon) and 1 mm was cut out, leaving the sural branch intact. The wound was closed with sutures, and the animals were allowed to recover and returned to their cages. Two subcutaneous injections of buprenorphine (0.05 mg/kg) were performed with an 8 to 12 hours delay decreasing pain due to the surgery […]
The remaining SNI pain experiments were performed in-house using the following procedure.
SNI surgery was performed on the left hindleg of C57BL/6J male and female mice (Janvier, France) under 2% isoflurane anaesthesia. Skin on the lateral surface was incised between hip and knee followed by lengthwise division of the biceps femoris muscle leading to exposure of the three branches of the sciatic nerve. Sural branch was left intact, while the peroneal and tibial branches were ligated with a single surgical knot and axotomized distally of the ligation.
Wounds were closed with surgical glue or medical clips and animals were monitored daily for signs of stress or discomfort, but in all cases recovered uneventfully. […]
The skin wound was closed with two medical clips (Michel Suture Clips, 7.5x1.75 mm, Angthos, 12040-01). Post-surgical analgesia included s.c. injection of 5 mg/kg carprofen (Carprosan vet, 50 mg/mL mixed 1:25 in sterile ddH2O, Dechra, Le Vet Beheer B.V., Netherlands, Batch: 050520) right after surgery and the […]
following day. […]
The test battery of the CIBP model was carried out 45 or 90 min after morphine and mPD5 administration respectively to accommodate the peak efficacy […]
Mechanically evoked pain (von Frey test).
Unless otherwise specified, von Frey occurred as described in the following. Animals were habituated to the experimental room for a minimum of 60 min before initiation of the experiment. Mechanical paw withdrawal threshold (PWT) was determined by von Frey measurements of both hind paws. Von Frey filaments ranging from 0.04 to 2 g (g = gram- […]
Filaments in ascending order were applied to the frontocentral plantar surface of the hind paws.
Mice were placed in PVC plastic boxes (11.5 cm x 14 cm) on a wire mesh and allowed minimum 20 min habituation prior of experiment initiation. Each von Frey hair was applied five times with adequate resting periods between each application and number of withdrawals recorded. The withdrawal threshold was determined as the von Frey filament eliciting at least three positive trials out of the five applications in two consecutive filaments. A positive trial was defined as sudden paw withdrawal, flinching and/or paw licking induced by the filament.
For the CIBP model, two habituation sessions were performed on separated days with mice placed in the von Frey equipment for 1-1.5 hours in the presence of the experimenter on day one and random von Frey pocking with the 0.6 g filament on day two. Von Frey monofilaments (North Coast Touch Test, North Coast Medical, Inc.) with target forces of 0.04g, 0.07g, 0.16g, […]
down method” (PWT=10Xf+kδ) starting with the 0.6 g filament. Positive response was defined as; withdrawal, shaking or grooming of paw following a 2-3 second stimulation. In case, of unclear response, stimulus was repeated after 10-15 seconds.
For the STZ model, the mechanical threshold response of the injected mice was measured with […]
injection of test compounds on day 14, mechanical threshold was measured at 1 hour, 2 hours, 4 hours and 6 hours and again on day 15. […]
Thermally evoked pain (Hargreaves test).
A baseline Hargreaves test was performed on day 0 before inflammatory pain was induced as described in section 2.13. In the Hargreaves test, the mouse was placed in a container on a glass […]

[2] = test system: mice, spared nerve injury (SNI) model; assay: SNI model 18 weeks after surgery, von Frey, sustained s.c. administration; type: in vivo, mouse; set-up: von Frey threshold, Fig 7C, individual mice: unit not given here; conditions: for duration of effect on mechanical hypersensitivity: SNI 18 weeks after surgery
Description: Repeated and sustained administration of mPD5 in the SNI model. […]
For the first experiment with sustained administration of mPD5 (Figure 7C), the mice underwent a baseline von Frey reading as described in the “Mechanically-evoked pain (von Frey).”-section and SNI surgery as described in “Induction of neuropathic pain (SNI model).”-section. Approximately 18 weeks (125 days) after SNI surgery, hyperalgesia was confirmed with von Frey. On the same day, mice were injected s.c. with 10 μmol/kg mPD5 and evoked pain was tested again at 1 hour after injection. Then, mice were injected s.c. with either 2+2+2 μmol/kg mPD5 (group A) or PBS (group B) once an hour for 3 hours. At 4,5 hours after the 10 μmol/kg mPD5 injection paw withdrawal threshold was measured again followed by a s.c. injection of 2 μmol/kg mPD5 in all animals. The PWT was measured again at 6 hours +7 hours + 8 hours + 9 hours + 10 hours + 11 hours + 22 hours + 23 hours + 25 hours + 27 hours + 49 hours + 121 hours after the initial 10 μmol/kg mPD5 injection performed on day 125. […]

## CCCCCCCCCCCCCC(=O)N(CCOCCOCCC(=O)N[C@@H](Cc1c[nH]cn1)C(=O)N[C@@H](Cc1c[nH]c2ccccc12)C(=O)N[C@@H](CC(C)C)C(=O)N[C@@H](CCCCN)C(=O)N[C@H](C(=O)O)C(C)C)CCOCCOCCC(=O)N[C@@H](Cc1c[nH]cn1)C(=O)N[C@@H](Cc1c[nH]c2ccccc12)C(=O)N[C@@H](CC(C)C)C(=O)N[C@@H](CCCCN)C(=O)N[C@H](C(=O)O)C(C)C [mPD5, myristoyl-NPEG4-(HWLKV)2]
[1]; time point 8
  von Frey paw withdrawal threshold, ipsilateral paw (Fig 7F): 0.16 (5×) and 0.4
[1]; time point 13
  von Frey paw withdrawal threshold, ipsilateral paw (Fig 7F): 0.16 (5×) and 0.07
[1]; time point BL (baseline)
  von Frey paw withdrawal threshold, ipsilateral paw (Fig 7F): 1 (2×) and 1.4 (4×)
[1]; time point D12 (before dosing)
  von Frey paw withdrawal threshold, ipsilateral paw (Fig 7F): 0.16 (5×) and 0.07
[1]; SNI, single s.c. administration, 8 hours after injection
  effect on mechanical hypersensitivity (PWT): no effect on mechanical hypersensitivity
[2]; A-contra, time 9 post første inj og time 4 post sidste inj
  von Frey threshold, contralateral paw, Fig 7C, individual mice: 1.4 (3×) and 1 (5×)
[2]; A-contra, time 10 post første inj og time 5 post sidste inj
  von Frey threshold, contralateral paw, Fig 7C, individual mice: 1 (4×) and 1.4 (3×) and 0.6
[2]; A-contra, time 11 post første inj og time 6 post sidste inj
  von Frey threshold, contralateral paw, Fig 7C, individual mice: 1.4 (2×) and 2 (2×) and 1 (4×)
[2]; A-contra, time 22 post første inj og time 17 post sidste inj
  von Frey threshold, contralateral paw, Fig 7C, individual mice: 1.4 (4×) and 0.6 and 1 (3×)
[2]; A-contra, time 23 post første inj og time 18 post sidste inj
  von Frey threshold, contralateral paw, Fig 7C, individual mice: 1.4 (6×) and 0.6 and 1
[2]; A-contra, time 25 post første inj og time 20 post sidste inj
  von Frey threshold, contralateral paw, Fig 7C, individual mice: 1 (7×) and 1.4
[2]; A-contra, time 27 post første inj og time 22 post sidste inj
  von Frey threshold, contralateral paw, Fig 7C, individual mice: 1.4 (3×) and 1
[2]; B-contra, time 9 post første inj og time 4 post sidste inj
  von Frey threshold, contralateral paw, Fig 7C, individual mice: 1 (4×) and 1.4 (3×) and 2
[2]; B-contra, time 10 post første inj og time 5 post sidste inj
  von Frey threshold, contralateral paw, Fig 7C, individual mice: 1.4 (4×) and 2 (2×) and 1 (2×)
[2]; B-contra, time 11 post første inj og time 6 post sidste inj
  von Frey threshold, contralateral paw, Fig 7C, individual mice: 1 (2×) and 2 (2×) and 1.4 (4×)
[2]; B-contra, time 22 post første inj og time 17 post sidste inj
  von Frey threshold, contralateral paw, Fig 7C, individual mice: 1.4 (3×) and 1 (2×) and 2 (3×)
[2]; B-contra, time 23 post første inj og time 18 post sidste inj
  von Frey threshold, contralateral paw, Fig 7C, individual mice: 1 (2×) and 2 (3×) and 1.4 (2×) and 0.6
[2]; B-contra, time 25 post første inj og time 20 post sidste inj
  von Frey threshold, contralateral paw, Fig 7C, individual mice: 1.4 (5×) and 1 and 2 and 0.6
[2]; 10 + 2 + 2 + 2 + 2 μmol/kg s.c., 1 hour between injections (Group A), from first injection
  duration of effect on mechanical hypersensitivity: 25 h
[2]; without consecutive administration (reference, 10 + 0 + 0 + 0 + 2 μmol/kg)
  duration of effect on mechanical hypersensitivity: 1 h
[2]; group A, time 9 post første inj og time 4 post sidste inj
  von Frey threshold, Fig 7C, individual mice: 2 and 1.4 and 0.6 and 0.4 (2×) and 1 (3×)
[2]; group A, time 10 post første inj og time 5 post sidste inj
  von Frey threshold, Fig 7C, individual mice: 1.4 (2×) and 2 and 0.4 (3×) and 0.6 and 1
[2]; group A, time 11 post første inj og time 6 post sidste inj
  von Frey threshold, Fig 7C, individual mice: 1.4 and 1 (3×) and 0.16 and 0.4 and 0.6 (2×)
[2]; group A, time 22 post første inj og time 17 post sidste inj
  von Frey threshold, Fig 7C, individual mice: 0.6 (2×) and 1 (2×) and 0.16 (2×) and 0.4 and 1.4
[2]; group A, time 23 post første inj og time 18 post sidste inj
  von Frey threshold, Fig 7C, individual mice: 1.4 and 0.6 (2×) and 0.16 and 0.07 (2×) and 1 and 0.4
[2]; group A, time 25 post første inj og time 20 post sidste inj
  von Frey threshold, Fig 7C, individual mice: 0.16 (2×) and 2 and 0.6 (3×) and 0.4 and 1.4
[2]; group A, time 27 post første inj og time 22 post sidste inj
  von Frey threshold, Fig 7C, individual mice: 0.4
[2]; group B, time 9 post første inj og time 4 post sidste inj
  von Frey threshold, Fig 7C, individual mice: 1 and 0.4 (3×) and 0.07 (2×) and 0.6 and 0.16
[2]; group B, time 10 post første inj og time 5 post sidste inj
  von Frey threshold, Fig 7C, individual mice: 0.4 (3×) and 0.16 (2×) and 0.07 (3×)
[2]; group B, time 11 post første inj og time 6 post sidste inj
  von Frey threshold, Fig 7C, individual mice: 0.4 (2×) and 0.16 (3×) and 0.07 (3×)
[2]; group B, time 22 post første inj og time 17 post sidste inj
  von Frey threshold, Fig 7C, individual mice: 0.16 (5×) and 0.07 (3×)
[2]; group B, time 23 post første inj og time 18 post sidste inj
  von Frey threshold, Fig 7C, individual mice: 0.16 (3×) and 0.4 (2×) and 0.07 (3×)
[2]; group B, time 25 post første inj og time 20 post sidste inj
  von Frey threshold, Fig 7C, individual mice: 0.6 and 0.16 (4×) and 0.4 and 0.07 (2×)
[2]; group B, time 27 post første inj og time 22 post sidste inj
  von Frey threshold, Fig 7C, individual mice: 0.6 and 0.07 and 0.16
